Results from PMC12060349 (BMC Pharmacology & Toxicology, 2025).

Key:
[1] = test system: healthy Chinese male subjects; test: Safety evaluation; type: in vivo, human (healthy Chinese male subjects)
[2] = test system: patients with advanced NSCLC with EGFR mutations; conditions: FLAURA clinical study; cited from earlier work
[3] = test system: healthy Chinese male subjects; test: Safety evaluation; type: in vivo, human (healthy Chinese male subjects); conditions: Group 2

## CCC(C)n1ncn(-c2ccc(N3CCN(c4ccc(OCC5COC(Cn6cncn6)(c6ccc(Cl)cc6Cl)O5)cc4)CC3)cc2)c1=O (stereo not shown) [Itraconazole]
[1]; Group 1, monotherapy phase with Itraconazole 200 mg QD
  subjects with TEAEs: 42.9%
[1]; Group 1, 13 TEAEs in 10 subjects
  subjects with TEAEs also related to Itraconazole: 66.7%

## C=CC(=O)Nc1cc(Nc2nccc(-c3cn(C)c4ccccc34)n2)c(OC)cc1N(C)CCN(C)C [Osimertinib]
[2]
  median overall survival: 38.6 months

## CO[C@H]1/C=C/O[C@@]2(C)Oc3c(C)c(O)c4c(O)c(c(/C=N/N5CCN(C)CC5)c(O)c4c3C2=O)NC(=O)/C(C)=C\C=C\[C@H](C)[C@H](O)[C@@H](C)[C@@H](O)[C@@H](C)[C@H](OC(C)=O)[C@@H]1C [Rifampicin]
[3]
  subjects with TEAEs also related to Rifampicin: 20.0%
